# According to patent US20220313774A1, “INTRANASAL ADMINISTRATION OF MEROTOCIN FOR IMPROVING LACTATION” (FERRING B.V., priority 2019, published 2022):
# Where two headings read alike, the source gives them in different places. *1 amine or outer side, *2 acyl side, *3 side chain or, on linkers, in order; H or OH if unused. Where a SMILES comes first, the peptide text is derived from it. Bridges are numbered along the chain shown (N, C = ends). [ ]: non-standard residue; d: D form. N(4-F-Bzl)Gly = O=C(O)CNCc1ccc(F)cc1; X1 = O=C(CCC[*:2])[*:1]
# How the values were obtained:
# healthy women [1] = conditions: in vivo
# Experimental: (§1) The first clinical trial in human, Trial 000015, was a double-blind, placebo-controlled, single dose, within dose panel randomised, sequential dose escalating study. The trial was divided into three parts:
# (§2) Part 1. Ascending single i.n. doses. There were 7 dose panels with 8 healthy women in each dose panel (6 active, 2 placebo). The doses investigated were 5 μg, 15 μg, 50 μg, 100 μg, 200 μg, 300 μg, and 400 μg.
# (§3) Seven dose levels were investigated: 5, 15, 50, 100, 200, 300, and 400 μg. Each of the doses were administered as a nasal spray based on one or multiple puffs per nostril.
# Part 3. Open-label cross-over single i.n. and single i.v. dose in 6 healthy women. The doses investigated were 20 μg as an i.v. infusion over 25 minutes, and 400 μg as a single i.n. dose.
# The intranasal dose was 400 μg (4×140 μl, the same as the highest dose in Part 1), the i.v. dose was 20 μg infused in 2 mL over 25 minutes.
# healthy women [2] = tested on: healthy women;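 for Any AE: number of AEs, E: adverse events in healthy women given intranasal doses every 3 h over 45 h (16 doses per panel), each panel with 6 active and 2 placebo subjects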;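 for headache: subjects reporting: adverse events in healthy women given intranasal doses every 3 h over 45 h (16 doses per panel), each panel with 6 active and 2 placebo subjects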;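 for intensity of all TEAEs: adverse events in healthy women given intranasal doses every 3 h over 45 h (16 doses per panel), each panel with 6 active and 2 placebo subjects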;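 for withdrawal due to nausea: adverse events in healthy women given intranasal doses every 3 h over 45 h (16 doses per panel), each panel with 6 active and 2 placebo subjects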
# Experimental: Part 2. Ascending multiple i.n. doses. There were 3 dose panels with 8 healthy women in each dose panel (6 active, 2 placebo). The dosing schedule was every 3 hours for 45 hours, i.e. 16 doses in all. The doses investigated were 50 μg, 200 μg, and 400 μg.
# Three dose levels were investigated: the first dose was 50 μg, the second dose was 200 μg (intermediate between the first dose and the maximal tolerated dose in Part 1), and the highest dose was 400 μg (the maximal dose in Part 1).
# [3] = Trial 000015 Part 1: pharmacokinetics after single intranasal administration
# Experimental: as §1, §2, §3
# FE 202767 was provided as an isotonic citrate/phosphate buffered solution of pH 5.5 in water in vials containing an extractable volume of 0.9 mL (Table 2). The concentration of FE 202767 was 0.7 mg/mL, to be used appropriately diluted with buffer or, for Part 3, NaCl for injection. The buffer used for FE 202767 was used as placebo in this study.
# healthy women [4] = conditions: in vivo; remark: listed apart in the source
# [5] = Trial 000015 Part 2: pharmacokinetics after multiple intranasal administrations; format: in vivo, human; conditions: for Cmax / Tmax / AUC(0-t): female, human, plasma, inhaled or intranasal, multiple i.n. doses every 3 hours; for Tmax: read-out: tmax Mean (SD)
# Excerpt: The trial was divided into three parts:
# Part 2. Ascending multiple i.n. doses.
# [6] = multiple doses 50 μg i.n., N = 6
# [7] = multiple doses 200 μg i.n., N = 6
# [8] = multiple doses 400 μg i.n., N = 6
# [9] = 16 i.n. administrations over 48 hours
compound,measurement,setting,value
"CC[C@H](C)[C@@H]1NC(=O)[C@H](Cc2ccc(O)cc2)NC(=O)CCCSC[C@@H](C(=O)N(CC(=O)N[C@@H](CC(C)C)C(=O)NCC(N)=O)Cc2ccc(F)cc2)NC(=O)[C@H](CC(N)=O)NC(=O)[C@H](CCC(N)=O)NC1=O [merotocin, Glycinamide, N-(4-mercapto-1-oxobutyl)-L-tyrosyl-L-isoleucyl-Lglutaminyl-L-asparaginyl-L-cysteinyl-N-[(4-fluorophenyl)methyl]glycyl-L-leucyl-, cyclic (1→5)-thioether] (YIQNC[N(4-F-Bzl)Gly]LG-NH2; linker N-5 via X1)",Dry mouth: subjects reporting,healthy women [1],3 subjects
same,intensity of all adverse events,healthy women [1],mild
same,safety (key results),healthy women [1],No safety
same,withdrawal due to nausea,"healthy women [2]; 400 μg group, multiple doses",One subject was withdrawn
same,dry mouth: subjects reporting,"healthy women [2]; 200 and 400 μg groups, multiple doses",5 subjects
same,intensity of all TEAEs,healthy women [2]; after multiple dose administrations,mild
same,headache: subjects reporting,"healthy women [2]; all treatment groups, multiple doses",4 subjects
same,"Any AE: number of AEs, E",healthy women [2]; [6],3
same,"Any AE: subjects with AE, n (%)",healthy women [2]; [6],3 (50%)
same,"Breast tenderness: number of AEs, E",healthy women [2]; [6],1
same,"Breast tenderness: subjects with AE, n (%)",healthy women [2]; [6],1 (17%)
same,"Headache: number of AEs, E",healthy women [2]; [6],2
same,"Headache: subjects with AE, n (%)",healthy women [2]; [6],2 (33%)
same,"Any AE: number of AEs, E",healthy women [2]; [7],5
same,"Any AE: subjects with AE, n (%)",healthy women [2]; [7],4 (67%)
same,"Dry mouth: number of AEs, E",healthy women [2]; [7],3
same,"Dry mouth: subjects with AE, n (%)",healthy women [2]; [7],3 (50%)
same,"Flushing: number of AEs, E",healthy women [2]; [7],1
same,"Flushing: subjects with AE, n (%)",healthy women [2]; [7],1 (17%)
same,"Headache: number of AEs, E",healthy women [2]; [7],1
same,"Headache: subjects with AE, n (%)",healthy women [2]; [7],1 (17%)
same,"Any AE: number of AEs, E",healthy women [2]; [8],6
same,"Any AE: subjects with AE, n (%)",healthy women [2]; [8],3 (50%)
same,"Dry mouth: number of AEs, E",healthy women [2]; [8],2
same,"Dry mouth: subjects with AE, n (%)",healthy women [2]; [8],2 (33%)
same,"Flushing: number of AEs, E",healthy women [2]; [8],1
same,"Flushing: subjects with AE, n (%)",healthy women [2]; [8],1 (17%)
same,"Headache: number of AEs, E",healthy women [2]; [8],2
same,"Headache: subjects with AE, n (%)",healthy women [2]; [8],1 (17%)
same,"Nausea: number of AEs, E",healthy women [2]; [8],1
same,"Nausea: subjects with AE, n (%)",healthy women [2]; [8],1 (17%)
same,number of TEAEs reported,"healthy women [2]; multiple doses, 24 subjects",14
same,Cmax,"[3]; female, human, plasma, inhaled or intranasal, 100 ug, Cmax Geom. mean (% CV), single i.n. dose 100 μg, N = 6",0.0379 ng/mL
same,Cmax,"[3]; female, human, plasma, inhaled or intranasal, 100 ug, Cmax Median, single i.n. dose 100 μg, N = 6",0.0322 ng/mL
same,AUC(0-t),"[3]; female, human, plasma, inhaled or intranasal, 200 ug, AUCt Geom. mean (% CV), single i.n. dose 200 μg, N = 6",0.0357 ng·h/mL
same,AUC(0-t),"[3]; female, human, plasma, inhaled or intranasal, 200 ug, AUCt Median, single i.n. dose 200 μg, N = 6",0.0525 ng·h/mL
same,Cmax,"[3]; female, human, plasma, inhaled or intranasal, 200 ug, Cmax Geom. mean (% CV), single i.n. dose 200 μg, N = 6",0.0841 ng/mL
same,Cmax,"[3]; female, human, plasma, inhaled or intranasal, 200 ug, Cmax Median, single i.n. dose 200 μg, N = 6",0.0999 ng/mL
same,AUC(0-t),"[3]; female, human, plasma, inhaled or intranasal, 300 ug, AUCt Geom. mean (% CV), single i.n. dose 300 μg, N = 6",0.0778 ng·h/mL
same,AUC(0-t),"[3]; female, human, plasma, inhaled or intranasal, 300 ug, AUCt Median, single i.n. dose 300 μg, N = 6",0.0943 ng·h/mL
same,Cmax,"[3]; female, human, plasma, inhaled or intranasal, 300 ug, Cmax Geom. mean (% CV), single i.n. dose 300 μg, N = 6",0.143 ng/mL
same,Cmax,"[3]; female, human, plasma, inhaled or intranasal, 300 ug, Cmax Median, single i.n. dose 300 μg, N = 6",0.148 ng/mL
same,Tmax,"[3]; female, human, plasma, inhaled or intranasal, 300 ug, tmax Mean (SD), single i.n. dose 300 μg, N = 6",12 min
same,AUC(0-t),"[3]; female, human, plasma, inhaled or intranasal, 400 ug, AUCt Geom. mean (% CV), single i.n. dose 400 μg, N = 6",0.0886 ng·h/mL
same,AUC(0-t),"[3]; female, human, plasma, inhaled or intranasal, 400 ug, AUCt Median, single i.n. dose 400 μg, N = 6",0.119 ng·h/mL
same,Cmax,"[3]; female, human, plasma, inhaled or intranasal, 400 ug, Cmax Median, single i.n. dose 400 μg, N = 6",0.199 ng/mL
same,Tmax,"[3]; female, human, plasma, inhaled or intranasal, 400 ug, tmax Mean (SD), single i.n. dose 400 μg, N = 6",13.2 min
same,Tmax,"[3]; female, human, plasma, other: intranasal, tmax, all i.n. dose levels, single or multiple administration",12 to 15 min
same,Tmax,"[3]; female, human, plasma, other: intranasal, tmax, single i.n. dose, all dose groups",12 to 15 min
same,half-life,"[3]; female, human, plasma, other: intranasal, t½, after i.n. administration, Trial 000015 key results",~30 min
same,increase of exposure (AUC and Cmax) with dose,[3]; single i.n. doses,close to dose proportional manner
same,ECG and safety laboratory parameters,healthy women [4],not affected to any measurable extent
same,blood pressure shifts,healthy women [4],Only occasional events of blood pressure shifts
same,pulse rate,healthy women [4],appeared to increase the pulse rate
same,urinary retention,healthy women [4],no signs of urinary retention
same,accumulation,[5]; [9],no indications of relevant accumulation
same,pre-dose concentrations,[5]; [9],falling constantly below the LLOQ
same,Cmax,"[5]; 50 ug, 50 μg, Dose No. 1, read-out: Cmax Geom. mean (% CV)",0.0275 ng/mL
same,Cmax,"[5]; 50 ug, 50 μg, Dose No. 1, read-out: Cmax Median",0.0307 ng/mL
same,Tmax,"[5]; 50 ug, 50 μg, Dose No. 1",13.8 min
same,Cmax,"[5]; 50 ug, 50 μg, Dose No. 2, read-out: Cmax Median",0.0302 ng/mL
same,Cmax,"[5]; 50 ug, 50 μg, Dose No. 16, read-out: Cmax Median",0.0266 ng/mL
same,Tmax,"[5]; 50 ug, 50 μg, Dose No. 16",20.4 min
same,AUC(0-t),"[5]; 200 ug, 200 μg, Dose No. 1, read-out: AUCt Geom. mean (% CV)",0.0804 ng·h/mL
same,AUC(0-t),"[5]; 200 ug, 200 μg, Dose No. 1, read-out: AUCt Median",0.0876 ng·h/mL
same,Cmax,"[5]; 200 ug, 200 μg, Dose No. 1, read-out: Cmax Geom. mean (% CV)",0.124 ng/mL
same,Cmax,"[5]; 200 ug, 200 μg, Dose No. 1, read-out: Cmax Median",0.125 ng/mL
same,Tmax,"[5]; 200 ug, 200 μg, Dose No. 1",10.8 min
same,AUC(0-t),"[5]; 200 ug, 200 μg, Dose No. 2, read-out: AUCt Geom. mean (% CV)",0.0752 ng·h/mL
same,AUC(0-t),"[5]; 200 ug, 200 μg, Dose No. 2, read-out: AUCt Median",0.0706 ng·h/mL
same,Cmax,"[5]; 200 ug, 200 μg, Dose No. 2, read-out: Cmax Geom. mean (% CV)",0.115 ng/mL
same,Cmax,"[5]; 200 ug, 200 μg, Dose No. 2, read-out: Cmax Median",0.118 ng/mL
